Source: patent publication US6713475B2, “Tricyclic benzodiazepines as vasopressin receptor antagonists” (Ortho-McNeil Pharmaceutical, Inc., priority 1999, dated 2004)
Where “and” joins values, the source holds several entries; their conditions need not be identical. Equal entries are not always repeated.

Assays:
human V-1 receptor = molecular target: T1, human V-1 receptor (Homo sapiens, UniProt P37288); assay: In vitro recombinant vasopressin receptor binding assay (V1 Bdg), displacement of 3H-arginine vasopressin; settings: for inhibition at 0.1 µM: read-out: V1 Bdg (% inh, 0.1 uM)
T1 construct: expressed in transfected cells; host or cells: HEK-293
Protocol: (§1) In vitro Recombinant Vasopressin Receptor Binding Assay
(§2) Compounds were assessed for their ability to displace ^3H-arginine vasopressin from the human V-1 or V-2 receptor in HEK-293 cells. Assay buffer is 50 mM Tris-Cl, 5 mM MgCl2, 0.1% BSA (pH 7.5) containing 5 ug/ml of aprotinin, leupeptin, pepstatin, 50 ug/ml bacitracin, and 1 mM Pefabloc. ^3H-vasopressin is ^3H-arginine-8-vasopressin (68.5 Ci/mmol, final concentration in assay is 0.65-0.75 nM). Into wells of 96-well round bottom polypropylene plates were added buffer, test compound, membrane (containing cloned human V-1 or V-2 receptor), and ^3H-vasopressin. The reaction plates were allowed to sit at room temperature for one hour. The samples were filtered through Unifilter GF/C plates (presoaked in 0.3 polyethyleneimine). The plates were washed 5 times with cold physiological saline containing 0.05% Tween 20. After drying, the bottom of the filter plates were sealed and 0.025 ml of Microscint-20 was added to each filter. The top of the plate was sealed, and the plate was counted. Non-specific binding was determined by the addition of 1.25 uM arginine-8-vasopressin in those wells.

V2 = V2 (Homo sapiens, UniProt P30518); assay: In vitro recombinant vasopressin receptor binding assay (V2 Bdg), displacement of 3H-arginine vasopressin; design: expressed in transfected cells; host or cells: HEK-293; settings: for V2 Bdg % inh: 0.1 uM, printed in parentheses in place of IC50; for IC50: membrane with cloned human V-2 receptor (HEK-293)
Protocol: as §1
as §2, with “Assay buffer is 50 mM Tris-Cl, 5 mM MgCl2, 0.1% BSA (pH 7.5) containing 5 ug/ml of aprotinin, leupeptin, pepstatin, 50 ug/ml bacitracin, and 1 mM Pefabloc. ^3H-vasopressin is ^3H-arginine-8-vasopressin (68.5 Ci/mmol, final concentration in assay is 0.65-0.75 nM).” left out, “counted.” for “counted. Non-specific binding was determined by the addition of 1.25 uM arginine-8-vasopressin in those wells.”

T1 sequence (P37288 whole entry): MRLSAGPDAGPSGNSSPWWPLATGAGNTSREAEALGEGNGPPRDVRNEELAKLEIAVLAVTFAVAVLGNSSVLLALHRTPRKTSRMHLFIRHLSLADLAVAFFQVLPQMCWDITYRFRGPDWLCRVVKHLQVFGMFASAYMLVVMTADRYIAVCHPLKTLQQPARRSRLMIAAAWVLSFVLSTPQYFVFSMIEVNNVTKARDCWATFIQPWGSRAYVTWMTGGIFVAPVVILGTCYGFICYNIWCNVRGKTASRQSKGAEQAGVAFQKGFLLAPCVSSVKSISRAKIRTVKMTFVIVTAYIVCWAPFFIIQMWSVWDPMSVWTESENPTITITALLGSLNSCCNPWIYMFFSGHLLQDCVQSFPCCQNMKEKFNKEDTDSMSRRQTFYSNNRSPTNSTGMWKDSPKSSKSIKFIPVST

Question: “(RS)-3,5-Dimethyl-N-[3-chloro-4-(1,3,4,12a-tetrahydro-6H-[1,4]thiazino[4,3-a][1,4]-benzodiazepin-11(12H)-yl-carbonyl)phenyl]benzamide [Compound 41]” was tested. Which “V1 Bdg (% inh, 0.1 uM)” value (human V-1 receptor; 0.1 uM) did it give?
Answer: 5%

Question: And the “V2 Bdg % inh” value (V2)?
Answer: (38%/0.1 uM)

Question: `COc1cc(NC(=O)c2ccccc2-c2ccccc2)ccc1C(=O)N1CC2COCCN2Cc2ccccc21` (racemic) [Compound 14, (RS)-2-Phenyl-N-[3-methoxy-4-(1,3,4,12a-tetrahydro-6H-[1,4]oxazino[4,3-a][1,4]-benzodiazepin-11(12H)-yl-carbonyl)phenyl]benzamide] was tested. Which inhibition at 0.1 µM (human V-1 receptor) did it give?
Answer: 36%

Question: And the IC50 (V2)?
Answer: 9 nM

Question: For `COc1ccc(-c2ccccc2C(=O)Nc2ccc(C(=O)N3CC4CN(C)CCN4Cc4ccccc43)c(Cl)c2)cc1` (racemic) [Compound 67, (RS)-2-(4-Methoxy-phenyl)-N-[3-chloro-4-(1,3,4,12a-tetrahydro-2-methyl-6H-[1,4]pyrazino[4,3-a][1,4]-benzodiazepin-11(12H)-yl-carbonyl)phenyl]benzamide], which “V1 Bdg % inh” value (human V-1 receptor; 1 uM) is on record?
Answer: (14%/1 uM)

Question: What about the “V2 Bdg % inh” value (V2) of the same compound?
Answer: (36%/0.1 uM)

Question: With `COc1cc(NC(=O)c2ccccc2C)ccc1C(=O)N1CC2CN(C)CCN2Cc2ccccc21` (racemic) [Compound 83, (RS)-2-Methyl-N-[3-methoxy-4-(1,3,4,12a-tetrahydro-2-methyl-6H-[1,4]pyrazino[4,3-a][1,4]-benzodiazepin-11(12H)-yl-carbonyl)phenyl]benzamide] as the compound, how does the “V1 Bdg % inh” value (human V-1 receptor; 1 uM) read?
Answer: (44%/1 uM)

Question: What about the “V2 Bdg % inh” value (V2) of the same compound?
Answer: (10%/0.1 uM)

Question: “(RS)-2-Phenyl-N-[4-(8,9-dimethoxy-1,3,4,12a-tetrahydro-6H-[1,4]thiazino[4,3-a][1,4]-benzodiazepin-11(12H)-yl-carbonyl)phenyl]benzamide [Compound 33]” was tested. Which “V1 Bdg % inh” value (human V-1 receptor; 10 uM) did it give?
Answer: 6%/10 uM

Question: What about the “V2 Bdg % inh” value (V2) of the same compound?
Answer: (19%/0.1 uM)

Question: How did the inhibition at 0.1 µM (human V-1 receptor) turn out when `O=C(Nc1ccc(C(=O)N2CC3COCCN3Cc3ccccc32)c(Cl)c1)c1ccccc1SC(F)F` (racemic) [Compound 19, (RS)-2-(Difluoromethylthio)-N-[3-chloro-4-(1,3,4,12a-tetrahydro-6H-[1,4]oxazino[4,3-a][1,4]-benzodiazepin-11(12H)-yl-carbonyl)phenyl]benzamide] was run?
Answer: 24%

Question: And the IC50 (V2)?
Answer: 27 nM

Question: How did the “V1 Bdg % inh” value (human V-1 receptor; 1 uM) turn out when `CN1CCN2Cc3ccccc3N(C(=O)c3ccc(NC(=O)c4c(Cl)cccc4Cl)cc3Cl)CC2C1` (racemic) [Compound 98, (RS)-2,6-Dichloro-N-[3-chloro-4-(1,3,4,12a-tetrahydro-2-methyl-6H-[1,4]pyrazino[4,3-a][1,4]-benzodiazepin-11(12H)-yl-carbonyl)phenyl]benzamide] was run?
Answer: (26%/1 uM)

Question: What about the “V2 Bdg % inh” value (V2) of the same compound?
Answer: (12%/0.1 uM)

Question: Which “V1 Bdg % inh” value (human V-1 receptor; 1 uM) does the source give for `COc1cc(C(=O)N2CC3CN(C)CCN3Cc3ccccc32)ccc1NC(=O)c1ccccc1C` (racemic) [Compound 71, (RS)-2-Methyl-N-[2-methoxy-4-(1,3,4,12a-tetrahydro-2-methyl-6H-[1,4]pyrazino[4,3-a][1,4]-benzodiazepin-11(12H)-yl-carbonyl)phenyl]benzamide] here?
Answer: (12%/1 uM)

Question: “(RS)-2,3-Difluoro-N-[3-chloro-4-(1,3,4,12a-tetrahydro-2-methyl-6H-[1,4]pyrazino[4,3-a][1,4]-benzodiazepin-11(12H)-yl-carbonyl)phenyl]benzamide [Compound 101]” was tested. Which “V1 Bdg % inh” value (human V-1 receptor; 1 uM) did it give?
Answer: (6%/1 uM)

Question: Which inhibition at 0.1 µM (human V-1 receptor) does the source give for `O=C(Nc1ccc(C(=O)N2C[C@H]3COCCN3Cc3ccccc32)c(Cl)c1)c1ccc(O)cc1-c1ccccc1` [Compound 6, (S)-2-Phenyl-4-hydroxy-N-[3-chloro-4-(1,3,4,12a-tetrahydro-6H-[1,4]oxazino[4,3-a][1,4]-benzodiazepin-11(12H)-yl-carbonyl)phenyl]benzamide] here?
Answer: 49%

Question: With `COc1cc(C(=O)N2CC3CN(C)CCN3Cc3ccccc32)ccc1NC(=O)c1ccccc1-c1ccc(C)cc1` (racemic) [Compound 73, (RS)-2-(4-Methyl-phenyl)-N-[2-methoxy-4-(1,3,4,12a-tetrahydro-2-methyl-6H-[1,4]pyrazino[4,3-a][1,4]-benzodiazepin-11(12H)-yl-carbonyl)phenyl]benzamide] as the compound, how does the IC50 (V2) read?
Answer: 43 nM

Question: What about the inhibition at 0.1 µM (V2; read-out: V2 Bdg % inh) of the same compound?
Answer: 73%

Question: How did the IC50 (V2) turn out when `O=C(Nc1ccc(C(=O)N2CC3COCCN3Cc3ccccc32)c(Cl)c1)c1ccc(F)cc1-c1ccccc1` (racemic) [Compound 114, (RS)-2-Phenyl-4-fluoro-N-[3-chloro-4-(1,3,4,12a-tetrahydro-6H-[1,4]oxazino[4,3-a][1,4]-benzodiazepin-11(12H)-yl-carbonyl)phenyl]benzamide] was run?
Answer: 4 nM

Question: `Cc1ccc(F)cc1C(=O)Nc1ccc(C(=O)N2CC3COCCN3Cc3ccccc32)c(Cl)c1` (racemic) [Compound 110, (RS)-2-Methyl-5-fluoro-N-[3-chloro-4-(1,3,4,12a-tetrahydro-6H-[1,4]oxazino[4,3-a][1,4]-benzodiazepin-11(12H)-yl-carbonyl)phenyl]benzamide] was tested. Which IC50 (V2) did it give?
Answer: 6 nM

Question: Which “V2 Bdg % inh” value (V2) does the source give for `CN1CCN2Cc3ccccc3N(C(=O)c3ccc(NC(=O)c4cccc(Cl)c4F)cc3Cl)CC2C1` (racemic) [Compound 65, (RS)-2-Fluoro-3-chloro-N-[3-chloro-4-(1,3,4,12a-tetrahydro-2-methyl-6H-[1,4]pyrazino[4,3-a][1,4]-benzodiazepin-11(12H)-yl-carbonyl)phenyl]benzamide] here?
Answer: (17%/0.1 uM)

Question: How did the “V2 Bdg % inh” value (V2) turn out when `CC(C)N1CCN2Cc3ccccc3N(C(=O)c3ccc(NC(=O)c4ccccc4-c4ccccc4)cc3Cl)CC2C1` (racemic) [Compound 60, (RS)-2-Phenyl-N-[3-chloro-4-(1,3,4,12a-tetrahydro-2-isopropyl-6H-[1,4]pyrazino[4,3-a][1,4]-benzodiazepin-11(12H)-yl-carbonyl)phenyl]benzamide] was run?
Answer: (25%/0.1 uM)

Question: Which IC50 (V2) does the source give for `O=C(Nc1ccc(C(=O)N2CC3CSCCN3Cc3ccccc32)c(Cl)c1)c1ccccc1-c1ccsc1` (racemic) [Compound 50, (RS)-2-(3-Thienyl)-N-[3-chloro-4-(1,3,4,12a-tetrahydro-6H-[1,4]thiazino[4,3-a][1,4]-benzodiazepin-11(12H)-yl-carbonyl)phenyl]benzamide] here?
Answer: 40 nM

Question: `Cc1cccc(C(=O)Nc2ccc(C(=O)N3CC4CN(C)CCN4Cc4ccccc43)c(Cl)c2)c1C` (racemic) [Compound 62, (RS)-2,3-Dimethyl-N-[3-chloro-4-(1,3,4,12a-tetrahydro-2-methyl-6H-[1,4]pyrazino[4,3-a][1,4]-benzodiazepin-11(12H)-yl-carbonyl)phenyl]benzamide] was tested. Which “V2 Bdg % inh” value (V2) did it give?
Answer: 28% and 48%

Question: How did the “V2 Bdg % inh” value (V2) turn out when “(RS)-2-Methyl-5-fluoro-N-[3-chloro-4-(1,3,4,12a-tetrahydro-2-methyl-6H-[1,4]pyrazino[4,3-a][1,4]-benzodiazepin-11(12H)-yl-carbonyl)phenyl]benzamide [Compound 94]” was run?
Answer: (39%/0.1 uM)

Question: `O=C(Nc1ccc(C(=O)N2CC3CSCCN3Cc3ccccc32)c(Cl)c1)c1cc(F)ccc1-c1ccccc1` (racemic) [Compound 104, (RS)-2-Phenyl-5-fluoro-N-[3-chloro-4-(1,3,4,12a-tetrahydro-6H-[1,4]thiazino[4,3-a][1,4]-benzodiazepin-11(12H)-yl-carbonyl)phenyl]benzamide] was tested. Which IC50 (V2) did it give?
Answer: 79 nM

Question: `Cc1csc(-c2ccccc2C(=O)Nc2ccc(C(=O)N3CC4CSCCN4Cc4ccccc43)cc2)c1` (racemic) [Compound 53, (RS)-2-(4-Methyl-2-thienyl)-N-[4-(1,3,4,12a-tetrahydro-6H-[1,4]thiazino[4,3-a][1,4]-benzodiazepin-11(12H)-yl-carbonyl)phenyl]benzamide] was tested. Which IC50 (V2) did it give?
Answer: 15 nM

Question: `O=C(Nc1ccc(C(=O)N2CC3CSCCN3Cc3ccccc32)c(F)c1)c1ccccc1-c1ccccc1` (racemic) [Compound 106, (RS)-2-Phenyl-N-[3-fluoro-4-(1,3,4,12a-tetrahydro-6H-[1,4]thiazinol[4,3-a][1,4]-benzodiazepin-11(12H)-yl-carbonyl)phenyl]benzamide] was tested. Which IC50 (V2) did it give?
Answer: 22 nM

Question: Which IC50 (V2) does the source give for `O=C(Nc1ccc(C(=O)N2CC3CSCCN3Cc3ccccc32)c(O)c1)c1ccccc1-c1ccccc1` (racemic) [Compound 109, (RS)-2-Phenyl-N-[3-hydroxy-4-(1,3,4,12a-tetrahydro-6H-[1,4]thiazino[4,3-a][1,4]-benzodiazepin-11(12H)-yl-carbonyl)phenyl]benzamide] here?
Answer: 7 nM

Question: For `O=C(Nc1ccc(C(=O)N2CC3CSCCN3Cc3ccccc32)c(F)c1)c1ccccc1-c1ccsc1` (racemic) [Compound 51, (RS)-2-(3-Thienyl)-N-[3-fluoro-4-(1,3,4,12a-tetrahydro-6H-[1,4]thiazino[4,3-a][1,4]-benzodiazepin-11(12H)-yl-carbonyl)phenyl]benzamide], which “V2 Bdg % inh” value (V2) is on record?
Answer: (62%/0.1 uM)
